Test results published in ChEMBL document CHEMBL6103616, “Isolation and Biosynthesis of Hyellamide, a Glycosylated N-Acyltyrosine Derivative, from the Cyanobacterium Hyella patelloides LEGE 07179” (J Nat Prod, 2025).
Activity calls are given as the source filed them. No cut-off for these calls is given here.

Test system: Bacillus subtilis
Test: Antibacterial activity against Bacillus subtilis […] assessed as growth inhibition by agar disk diffusion method
Type: functional, organism-based

Question: For `CCCCCCCCCCCCCC(=O)N/C=C/c1ccc(O[C@@H]2OC[C@@H](O)[C@H](OC(C)=O)[C@H]2O)cc1`, which Activity is on record?
Answer: inactive
